Molecules are shown by their SMILES.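 The compound was tested at five concentrations on cells cultured in 96-well plates, with a 48-hour exposure period. TGI marks complete inhibition of growth.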 Some results are limits rather than exact numbers.

Some test systems named below: SF-268 CNS; HCT-116 colon; SNB-75 CNS; M14 melanoma; RXF 393 renal; SF-539 CNS; MDA-MB-435; HL-60(TB) leukemia; SNB-19 CNS; CAKI-1 renal; OVCAR-3 ovarian; OVCAR-5 ovarian; T-47D breast; 786-0 renal; HOP-62 NSCLC; NCI-H23 lung; MDA-N; NCI-H226 lung; EKVX NSCLC; HCC-2998 colon.
What all share (test): growth of human tumour cells (NCI), 48 h

In the case of `CC1C2CC(CC2O)C1(C)C` (stereo not drawn), the TGI with SF-268 CNS, with HCT-116 colon, in the experiment on SNB-75 CNS, with M14 melanoma, in the experiment with RXF 393 renal and with SF-539 CNS was above 100 µM each time. For the same compound, the TGI with MDA-MB-435, in the experiment with HL-60(TB) leukemia, in the experiment with SNB-19 CNS, in the experiment with CAKI-1 renal, in the experiment on OVCAR-3 ovarian and with OVCAR-5 ovarian was above 100 µM in each case. Besides, the TGI with T-47D breast, in the experiment with 786-0 renal, in the experiment on HOP-62 NSCLC, in the experiment on NCI-H23 lung, with MDA-N and in the experiment on NCI-H226 lung was above 100 µM each time.
Take `Cc1cc(O)c2c(c1)C(=O)C=C(Br)C2=O`: the TGI amounted to 98.9 µM in the experiment on SF-268 CNS; 30.8 µM in the experiment on HCT-116 colon; 31 µM in the experiment on SNB-75 CNS; 29.5 µM with M14 melanoma; 29.8 µM with SF-539 CNS; 27.6 µM with MDA-MB-435. The TGI was 1.71 µM with HL-60(TB) leukemia; above 100 µM with SNB-19 CNS; 27.7 µM in the experiment with CAKI-1 renal; 30.6 µM with OVCAR-3 ovarian; 29.7 µM in the experiment with OVCAR-5 ovarian; 14.9 µM with T-47D breast. The TGI was above 61.2 µM with EKVX NSCLC; 31.3 µM in the experiment on 786-0 renal; above 100 µM in the experiment with HOP-62 NSCLC; above 58.1 µM in the experiment with HCC-2998 colon; 35.5 µM with NCI-H23 lung; 28.7 µM with MDA-N. Besides, in the experiment with NCI-H226 lung, the TGI was 34.8 µM.
With `O=C1CC(NCCCNC2CC(=O)c3c(Br)sc(Br)c32)c2c(Br)sc(Br)c21` (stereo not drawn), the TGI in the experiment on SF-268 CNS is 11.7 µM; in the experiment on HCT-116 colon it was 2.41 µM; in the experiment with SNB-75 CNS it was 7.68 µM; in the experiment with M14 melanoma it was 4.39 µM; in the experiment on RXF 393 renal it was 3.62 µM; in the experiment with SF-539 CNS it was 8.56 µM. Moreover, the TGI in the experiment with MDA-MB-435 is 4.28 µM; with HL-60(TB) leukemia, above 100 µM; in the experiment on SNB-19 CNS, 6.75 µM; in the experiment with CAKI-1 renal, 3.77 µM; with OVCAR-5 ovarian, 4.85 µM; in the experiment with T-47D breast, 5.28 µM. Besides, the TGI is 4.8 µM in the experiment on EKVX NSCLC; 2.63 µM in the experiment on 786-0 renal; 14 µM in the experiment on HOP-62 NSCLC; 4.36 µM in the experiment on NCI-H23 lung; 5.54 µM with MDA-N; 12.6 µM in the experiment on NCI-H226 lung.
As to `Clc1cc2nnn(C3CCCCO3)c2cc1Cl` (stereo not drawn), the TGI in the experiment with SF-268 CNS, in the experiment with HCT-116 colon, in the experiment with SNB-75 CNS, with M14 melanoma, with RXF 393 renal and with SF-539 CNS was above 100 µM each time. The TGI in the experiment on MDA-MB-435, with SNB-19 CNS, in the experiment on CAKI-1 renal, in the experiment on OVCAR-3 ovarian, in the experiment with OVCAR-5 ovarian and in the experiment on T-47D breast was above 100 µM throughout. Moreover, the TGI is 79.4 µM with EKVX NSCLC; above 100 µM in the experiment on 786-0 renal; above 100 µM in the experiment with HOP-62 NSCLC; above 100 µM in the experiment on HCC-2998 colon; above 100 µM in the experiment on NCI-H23 lung; above 100 µM with MDA-N. The TGI in the experiment on NCI-H226 lung is above 100 µM.
For the compound `Cc1cc(CN(Cc2ccccc2)Cc2nc3ccccc3[nH]2)c(O)c(CN(Cc2nc3ccccc3[nH]2)Cc2nc3ccccc3[nH]2)c1`, the TGI in the experiment with SF-268 CNS is above 100 µM; in the experiment on HCT-116 colon it was 23.1 µM; in the experiment on SNB-75 CNS, above 72.3 µM; in the experiment on M14 melanoma it was 26.6 µM; in the experiment with RXF 393 renal, 64.1 µM; in the experiment on SF-539 CNS, 22.4 µM. Also, the TGI in the experiment with MDA-MB-435 is 36.1 µM; in the experiment with SNB-19 CNS it was above 25.1 µM; in the experiment on CAKI-1 renal it was above 100 µM; with OVCAR-3 ovarian it was 63.5 µM; with OVCAR-5 ovarian, above 100 µM; in the experiment with T-47D breast it was above 69.5 µM. The TGI in the experiment with EKVX NSCLC is 99.1 µM; in the experiment with 786-0 renal it was 73.4 µM; in the experiment on HOP-62 NSCLC, 35.3 µM; with HCC-2998 colon it was 38 µM; with NCI-H23 lung, above 79.5 µM; in the experiment on MDA-N it was 29 µM. Further, in the experiment with NCI-H226 lung, the TGI was above 50.9 µM.
With `c1ccc(N=C2C(=Nc3ccccc3)N(C3CCCCC3)C(=NC3CCCCC3)N2c2ccccc2)cc1`, the TGI in the experiment with HCT-116 colon, with SNB-75 CNS, with M14 melanoma, in the experiment on RXF 393 renal, with HL-60(TB) leukemia and in the experiment with SNB-19 CNS was above 100 µM each time. Besides, the TGI in the experiment with OVCAR-5 ovarian, with T-47D breast, with EKVX NSCLC, in the experiment with 786-0 renal, in the experiment with HOP-62 NSCLC and in the experiment on HCC-2998 colon was above 100 µM in each case. In addition, the TGI in the experiment with NCI-H23 lung, in the experiment on MDA-N and in the experiment on NCI-H226 lung was above 100 µM each time.
Turning to `COC(=N)c1ncn(Cc2ccccc2)c1N`, the TGI in the experiment on SF-268 CNS, in the experiment on HCT-116 colon, in the experiment on SNB-75 CNS, with M14 melanoma, in the experiment with RXF 393 renal and in the experiment on SF-539 CNS was above 100 µM throughout. For the same compound, the TGI with MDA-MB-435, in the experiment on SNB-19 CNS, in the experiment on CAKI-1 renal, in the experiment with OVCAR-3 ovarian, in the experiment on OVCAR-5 ovarian and in the experiment on T-47D breast was above 100 µM in each case. Also, the TGI with EKVX NSCLC, with 786-0 renal, in the experiment on HOP-62 NSCLC, with HCC-2998 colon, in the experiment with NCI-H23 lung and in the experiment on MDA-N was above 100 µM each time. This compound registered a TGI in the experiment with NCI-H226 lung above 100 µM.
`O=C1C=Cc2c1csc2Br`: the TGI with SF-268 CNS is above 100 µM; in the experiment with HCT-116 colon it was above 100 µM; with SNB-75 CNS, above 100 µM; in the experiment with M14 melanoma it was 47.2 µM; in the experiment with RXF 393 renal, above 100 µM; in the experiment on MDA-MB-435, above 100 µM. Moreover, the TGI in the experiment on SNB-19 CNS, in the experiment with CAKI-1 renal, with OVCAR-3 ovarian, with OVCAR-5 ovarian, in the experiment on T-47D breast and with EKVX NSCLC was above 100 µM each time. The TGI with 786-0 renal, in the experiment on HOP-62 NSCLC, in the experiment with NCI-H23 lung and in the experiment with MDA-N was above 100 µM throughout.

For the origin of these results see PubChem BioAssay (NCI).
